ChEMBL document CHEMBL3817799, “N-Nitrosulfonamides: A new chemotype for carbonic anhydrase inhibition” (Bioorg Med Chem, 2016)

Experiments:
Malassezia globosa = experiment: Potency index, ratio of acetazolamide Ki to compound Ki for Malassezia globosa beta carbonic anhydrase
[1] = Inhibition of Malassezia globosa beta carbonic anhydrase preincubated for 15 mins prior to testing by stopped flow CO2 hydrase assay
Carbonic anhydrase 2 = Carbonic anhydrase 2 (Homo sapiens, UniProt P00918); experiment: Inhibition of human recombinant carbonic anhydrase 2 preincubated for 15 mins prior to testing by stopped flow CO2 hydrase assay
Carbonic anhydrase 9 = Carbonic anhydrase 9 (Homo sapiens, UniProt Q16790); experiment: Inhibition of human recombinant carbonic anhydrase 9 preincubated for 15 mins prior to testing by stopped flow CO2 hydrase assay

N#CCNc1ccc(S(=O)(=O)N[N+](=O)[O-])cc1
Ratio Ki (Malassezia globosa): 10 | Ki [1]: 3.49 µM | Ki (Carbonic anhydrase 2): 1.35 µM | Ki (Carbonic anhydrase 9): 2 µM

Nc1nnc(S(=O)(=O)N[N+](=O)[O-])s1
Ratio Ki (Malassezia globosa): 10 | Ki [1]: 4.5 µM | Ki (Carbonic anhydrase 2): 4.52 µM | Ki (Carbonic anhydrase 9): 0.84 µM

NCc1ccc(S(=O)(=O)N[N+](=O)[O-])cc1
Ki [1]: 8.09 µM | Ki (Carbonic anhydrase 9): 5.99 µM

Nc1cccc(S(=O)(=O)N[N+](=O)[O-])c1
Ratio Ki (Malassezia globosa): 10 | Ki [1]: 2.75 µM | Ki (Carbonic anhydrase 2): 5.11 µM | Ki (Carbonic anhydrase 9): > 50 µM

CN(C)c1ccc(S(=O)(=O)N[N+](=O)[O-])cc1
Ratio Ki (Malassezia globosa): 10 | Ki [1]: 0.22 µM | Ki (Carbonic anhydrase 2): > 50 µM

CC(=O)Nc1nnc(S(N)(=O)=O)s1 [ACETAZOLAMIDE]
Ki [1]: 74 µM
